Test results published in ChEMBL document CHEMBL1156632, “Enhanced antimalarial activity of novel synthetic aculeatin derivatives” (J Med Chem, 2008).

Experiments:
Plasmodium falciparum [1] = assay: Antimalarial activity against Plasmodium falciparum 3D7 in human erythrocytes after 48hrs by [3H]hypoxanthine uptake; format: functional, organism-based
K562 = assay: (§1) Cytotoxicity against human K562 cells assessed as radioactive thymidine incorporation after 24 hrs; format: cell-based; conditions: k562, 24 h; for CC50: 24 h
Toxoplasma gondii = assay: Antitoxoplasmal activity against Toxoplasma gondii RH-beta1 in HFF cells assessed as beta-galactosidase activity after 48 to 72 hrs by colorimetric microtiter assay; format: functional, organism-based
[2] = Selectivity index, ratio of CC50 for human K562 cells to IC50 for Plasmodium falciparum 3D7; format: functional
[3] = as §1; format: cell-based; conditions: K562 cells
Plasmodium falciparum [4] = assay: Antimalarial activity against Plasmodium falciparum K1; format: functional, organism-based
[5] = Selectivity index, ratio of CC50 for human K562 cells to IC50 for Toxoplasma gondii RH-beta1; format: functional
[6] = Toxoplasma gondii, RH-beta1, HFF

IC50 (Plasmodium falciparum [1]; Plasmodium falciparum, 3D7) | SMILES | IC50 (Plasmodium falciparum [1]) | CC50 (K562) | IC50 (Toxoplasma gondii; hff) | Selectivity Index [2] | CC50 at 24 h [3] | IC50 (Plasmodium falciparum [4]) | IC50 (Toxoplasma gondii; [6]) | Selectivity Index [5] | Activity (K562)
– | CCCCCCCCCCCCC[C@@H]1CC(O)CC2(CCC3(C=CC(=O)C=C3)O2)O1 (single isomer, unassigned; form 1) [ACULEATINS B] | 451 nM | 30200 nM | 377 nM | – | – | – | – | – | –
770 nM | CCCCCCCCCCCCCCCCCCOC(=O)C[C@H]1C[C@H](O)C[C@@]2(CCC3(C=CC(=O)C=C3)O2)O1 (racemic) | – | – | – | 35 | 13900 nM | – | 2400 nM | 35 | –
120 nM | CCCCCCCCCCCCCC(=O)CC(=O)O[C@@H]1C[C@]2(CCC3(C=CC(=O)C=C3)O2)O[C@]2(CCC3(C=CC(=O)C=C3)O2)C1 | – | – | – | 35 | < 380 nM | – | – | 35 | –
331 nM | CCCCCCC(=O)OC1C[C@]2(CCC3(C=CC(=O)C=C3)O2)O[C@]2(CCC3(C=CC(=O)C=C3)O2)C1 (some centres undefined) | – | – | – | – | < 380 nM | – | – | 35 | –
1030 nM | CCCCCCCCCCCCCCCCCCOC(=O)C[C@H]1C[C@@H](O)C[C@@]2(CCC3(C=CC(=O)C=C3)O2)O1 (racemic) | – | – | – | 35 | 17500 nM | – | 3540 nM | 35 | –
– | CCCCCCCCCCCCCC1C[C@@H](O)CC2(CCC3(C=CC(=O)C=C3)O2)O1 (single isomer, unassigned) [ACULEATIN A] | 220 nM | – | – | 35 | 26700 nM | – | 436 nM | 35 | –
343 nM | CCCCCCC(=O)O[C@@H]1C[C@]2(CCC3(C=CC(=O)C=C3)O2)O[C@]2(CCC3(C=CC(=O)C=C3)O2)C1 | – | – | – | 35 | < 380 nM | – | – | 35 | –
– | CCCCCCCCCCCCC[C@@H]1C[C@@H](O)C[C@]2(CCC3(C=CC(=O)C=C3)O2)O1 [ACULEATIN A] | 478 nM | 28000 nM | 640 nM | – | – | 1000 nM | – | – | –
1360 nM | CCCCCCCCCCOC(=O)C[C@@H]1C[C@@H](O)C[C@]2(CCC3(C=CC(=O)C=C3)O2)O1 (stereo in doubt) | – | – | – | 35 | 41200 nM | – | 1630 nM | – | –
> 10000 nM | CCCCCCCCCCCCC[C@@H](O)C[C@@H](O)CC(=O)CCc1ccc(O)cc1 | – | – | – | 35 | 34500 nM | – | – | – | –
654 nM | CCCCCCCCCCOC(=O)C[C@H]1C[C@H](O)C[C@@]2(CCC3(C=CC(=O)C=C3)O2)O1 (stereo in doubt) | – | – | – | 35 | 28200 nM | – | 341 nM | 35 | –
414 nM | O=C1C=CC2(C=C1)CC[C@]1(C[C@@H](O)C[C@@]3(CCC4(C=CC(=O)C=C4)O3)O1)O2 | – | – | – | 35 | 390 nM | – | 173 nM | 35 | –
1150 nM | CCCCCCCCCCC(CCCCCCCCCC)OC(=O)C[C@H]1C[C@H](O)C[C@@]2(CCC3(C=CC(=O)C=C3)O2)O1 (racemic) | – | – | – | 35 | 22100 nM | – | 4450 nM | 35 | –
899 nM | CCCCCCN(CCCCCC)C(=O)C[C@H]1C[C@H](O)C[C@@]2(CCC3(C=CC(=O)C=C3)O2)O1 (racemic) | – | – | – | 35 | 390 nM | – | – | 35 | –
92 nM | CCCCCCCCCCCCCC(=O)OC1C[C@]2(CCC3(C=CC(=O)C=C3)O2)O[C@]2(CCC3(C=CC(=O)C=C3)O2)C1 (some centres undefined) | – | – | – | 123 | 11300 nM | – | 636 nM | – | –
– | CCN(CC)CCCC(C)Nc1ccnc2cc(Cl)ccc12 (centres undefined) [CHLOROQUINE] | – | – | – | – | 9700 nM | – | – | – | –
1840 nM | CCCOC(=O)C[C@H]1C[C@H](O)C[C@@]2(CCC3(C=CC(=O)C=C3)O2)O1 (racemic) | – | – | – | – | 109000 nM | – | 500 nM | 219 | –
– | CCCCCCCCCCCCC[C@@H]1C[C@H](O)C[C@@]2(CCC3(C=CC(=O)C=C3)O2)O1 | 288 nM | 25500 nM | – | – | – | 180 nM | 309 nM | – | –
> 5000 nM | CCCCCCCCCCCCC[C@@H]1C[C@@H](O)C[C@]2(CCC3(CCC(=O)CC3)O2)O1 (racemic) | – | – | – | – | 25600 nM | – | 11000 nM | 35 | –
81 nM | CCCCCCCCCCCCCC(=O)O[C@@H]1C[C@]2(CCC3(C=CC(=O)C=C3)O2)O[C@]2(CCC3(C=CC(=O)C=C3)O2)C1 | – | – | – | 109 | 8750 nM | – | 346 nM | – | –
584 nM | O=C1C=CC2(C=C1)CC[C@]1(CC(O)C[C@]3(CCC4(C=CC(=O)C=C4)O3)O1)O2 (some centres undefined) | – | – | – | – | – | – | 1500 nM | 35 | Toxic
1130 nM | CCCCCCCCCCCCCCCCCCOC(=O)C[C@H]1C[C@@H](O)C[C@]2(CCC3(C=CC(=O)C=C3)O2)O1 (racemic) | – | – | – | 35 | 15600 nM | – | 3520 nM | 35 | –

SMILES | IC50 (Plasmodium falciparum [1]; Plasmodium falciparum, 3D7) | IC50 (Plasmodium falciparum [1]) | CC50 (K562) | IC50 (Toxoplasma gondii; hff) | Selectivity Index [2] | CC50 at 24 h [3] | IC50 (Plasmodium falciparum [4]) | IC50 (Toxoplasma gondii; [6]) | Selectivity Index [5] | Activity (K562)
CCCCCCCCCCCCC[C@H]1C[C@@H](O)C[C@]2(CCC3(C=CC(=O)C=C3)O2)O1 [(+)-ACULEATIN B] | 454 nM | – | – | – | 35 | 27500 nM | 430 nM | 365 nM | 35 | –
CCCCCCCCCCCCC[C@@H]1CC(O)CC2(CCC3(C=CC(=O)C=C3)O2)O1 (single isomer, unassigned; form 2) | 335 nM | – | – | 436 nM | 35 | 25800 nM | – | – | 35 | –
CCCCCCCCCCCCCC1C[C@H](O)CC2(CCC3(C=CC(=O)C=C3)O2)O1 (single isomer, unassigned) | 329 nM | – | – | – | 35 | 22100 nM | – | 627 nM | – | –
CCCCCCCCCCCCC[C@@H]1CC(O)CC2(CCC3(C=CC(=O)C=C3)O2)O1 (single isomer, unassigned; form 3) [ACULEATINS B] | 366 nM | – | – | – | 35 | 30800 nM | – | 400 nM | 35 | –
